{
  "source": "patent US7291492B2",
  "about": "“Histone deacetylase 9” (The Institute of Cancer Research, priority 2001, dated 2007)",
  "system": "GAL4 DBD-HDAC9 fusions",
  "conditions": "293T cells, GAL4-TK-Luc reporter; HDAC9, HDAC9ΔCD and HDAC9CD fusions",
  "description": "GAL4-Tk-Luc was transiently transfected into 293T cells together with 100 ng GAL4 DBD fusions. All Results were performed in duplicate […].\nIt has been previously established that HDACs repress transcription when tethered to DNA as Gal4 fusion proteins. […] A GAL4^uasx5-TK-Luciferase reporter gene was transiently transfected into 293T cells together with the expression vectors for the indicated GAL4 fusion proteins.",
  "data": [
    {"substance": "Trichostatin A", "values": [
      {"measurement": "effect on the repressive effects of GAL4 DBD-HDAC9 fusions (reporter activity)", "result": "partially relieved"}
    ]}
  ]
}
